Measurements from publication PMC10302299, “Spruce Balm-Based Semisolid Vehicles for Wound Healing: Effect of Excipients on Rheological Properties and Ex Vivo Skin Permeation” (Pharmaceutics, 2023).
Like-named read-outs stand apart in the source and are kept apart here.

Legend:
[1] = cited from earlier work
[2] = Ex vivo skin permeation, static Franz-type diffusion cells, HPLC-DAD relative quantification; type: in vitro ADME, porcine; settings: for total permeated amounts (AUC), comparison of the two ointments: after 32 h, lard ointment versus wool wax/castor oil ointment; for Enhancement Factor: mean flux from lard versus wool wax/castor oil; for Mean Flux Based on AUC/cm^2/h (relative mass flux): infinite dose 500 mg, 32 °C, n = 9 cells; for time after which detectable in acceptor samples: wool wax/castor oil and Picea-Salbe ointments
Experimental: Skin permeation studies were performed using dermatomed porcine ear skin and static Franz-type diffusion cells (PermeGear, Hellertown, PA, USA, permeation area of 0.95 cm^2, acceptor volume of 2 mL). Porcine ears were obtained after sacrifice from a local abattoir (Johann Gantner GmbH, Gemeinde Hollabrunn, Austria, male and female animals at six months of age). The ears were cleaned under running water and were dried and stored at −18 °C until use.
Fresh vehicles were prepared 48 h before the start of the experiments. Skin from the dorsal side of the ears was cut to a thickness of 400 µm with a dermatome (Aesculap GA 630 DBP, Aesculap AG, Tuttlingen, Germany). Hair was removed with scissors. The skin was cut into 1 × 1 cm pieces and was clamped between donor and acceptor chamber. The acceptor medium consisted of a mixture of phosphate-buffered saline and ethanol (60:40% v/v) to ensure sink conditions. The phosphate-buffered saline was prepared as described in the Pharmacopoeia Europaea (0.012 M, pH of 7.4, 0.238% w/w sodium monohydrogen phosphate, 0.019% w/w potassium dihydrogen phosphate, and 0.8% w/w sodium chloride). Before starting the experiments, the transepidermal water loss (TEWL) was measured with a closed-chamber device and a coupling adapter (Aquaflux® AF200, Biox Systems Ltd., London, UK) to ensure consistent skin quality and barrier function.
The ointments were applied to the donor chambers at infinite dose conditions (500 mg of formulation). The donor compartment and sampling arm were occluded with Parafilm to prevent evaporation of sample or acceptor fluid. The diffusion cells were kept in a water bath at 32 °C to simulate skin surface temperature. Magnetic stirring was employed to avoid concentration layers within the acceptor fluid. Cells were regularly checked for air bubbles. After predefined intervals (2, 4, 6, 8, 24, 28, and 32 h), an aliquot of 200 μL of acceptor medium was taken for analysis and was replaced with fresh acceptor medium at 32 °C.
The most suitable formulation was chosen for analysis of permeation potential as well as the commercial product Picea-Salbe®. Three individual permeation experiments with n = 3 cells were performed for formulations and controls. The final results depict mean values ± SDs of n = 9 cells per formulation. As controls, the respective ointment bases without PSB as well as the plain acceptor medium alone were used.
For the analysis of samples drawn from Franz diffusion cells, a Shimadzu HPLC instrumentation with diode array detection (SHIMADZU Autosampler SIL-20AC HAT, SHIMADZU Column Oven CTO-20AC, SHIMADZU Communications Bus Module CBM-20A, SHIMADZU Degasser DGU-20A5, SHIMADZU Diode Array Detector SPD-M20A, SHIMADZU Liquid Chromatograph LC-20AD, SHIMADZU LabSolutions Software 5.81, Shimadzu, Kyoto, Japan) was used. A reversed-phase C18 column (LiChrospher 100 RP18e, 5 μm, 250 × 4 mm, Merck KGaA, Darmstadt, Germany) was employed as stationary phase. Double-distilled water + 0.1% formic acid (solvent A) and acetonitrile + 0.1% formic acid (solvent B) served as mobile phase, and gradient elution at 1 mL/min flow rate was applied as follows: 15% solvent B rose to 95% solvent B within 45 min (rate of 1.77%/min) followed by 5 min washing step at 98% solvent B and re-equilibration for 10 min with 15% solvent B. Samples drawn from Franz diffusion cells were centrifuged, and 10 μL were injected into the system. PSB samples were dissolved in acetone to a final concentration of 5 mg/mL, and 2 μL were analyzed. […] Peak areas (AUC) were obtained using the SHIMADZU LabSolutions Software 5.81 (Shimadzu, Kyoto, Japan) and were further utilized for interpretation of data.

[3] = vehicle lard (Picea-Salbe, 20% spruce balm)
[4] = vehicle wool wax/castor oil with 20% PSB (batch PSB5)

In the case of `CC(C)c1ccc2c(c1)C(O)CC1[C@](C)(C(=O)O)CCC[C@]21C` (some centres unmarked) [7-Hydroxy-dehydroabietic acid], the “Effects contributing to wound healing” value ([1]; Hydroxylated resin acids) is listed as “re-epithelialization boosting [9], antimicrobial [22], and anti-inflammatory effects [23]”.
In the case of `CC(C)(O)c1ccc2c(c1)[C@H](O)CC1[C@](C)(C(=O)O)CCC[C@]21C` (stereo partly drawn) [7α,15-Dihydroxy-dehydroabietic acid], the “Effects contributing to wound healing” value ([1]; Hydroxylated resin acids) is listed as “re-epithelialization boosting [9], antimicrobial [22], and anti-inflammatory effects [23]”.
In the case of `CC(C)(O)c1ccc2c(c1)[C@@H](O)CC1[C@](C)(C(=O)O)CCC[C@]21C` (stereo partly drawn) [7β,15-Dihydroxy-dehydroabietic acid], the “Effects contributing to wound healing” value ([1]; Hydroxylated resin acids) is given as “re-epithelialization boosting [9], antimicrobial [22], and anti-inflammatory effects [23]”.
With `CC(C)(O)c1ccc2c(c1)CC[C@H]1[C@](C)(C(=O)O)CCC[C@]21C` [15-hydroxy-dehydroabietic acid, 15-Hydroxy-dehydroabietic acid] the “total permeated amounts (AUC), comparison of the two ointments” value [2] was “a similar trend was observed”, the “Enhancement Factor” value [2] was 1.8 and the “Mean Flux Based on AUC/cm^2/h (relative mass flux)” value [2, 3] was 25.558 ± 9.673 AUC/cm^2/h. The “Mean Flux Based on AUC/cm^2/h (relative mass flux)” value [2, 4] was 13.606 ± 6.196 AUC/cm^2/h, the “time after which detectable in acceptor samples” value [2] was 24 h and the “Effects contributing to wound healing” value ([1]; Hydroxylated resin acids) was “re-epithelialization boosting [9], antimicrobial [22], and anti-inflammatory effects [23]”.
In the case of `CC(C)C1=CC2=CC[C@@H]3[C@](C)(CCC[C@@]3(C)C(=O)O)[C@H]2CC1` [Abietic acid], the “Effects contributing to wound healing” value ([1]; Diterpene resin acids (302 Da)) is given as “re-epithelialization boosting [9], antimicrobial [24, 25, 26, 27], anti-inflammatory [28, 29, 30], and antioxidant effects [31]”.
For `O=C(O)/C=C/c1ccc(O)c(O)c1` [Caffeic acid], the “Effects contributing to wound healing” value ([1]; Hydroxycinnamic acids) is given as “antioxidant, antimicrobial, and anti-inflammatory effects [19]”.
For `COc1cc(/C=C/C(=O)O)ccc1O` [Ferulic acid], the “Effects contributing to wound healing” value ([1]; Hydroxycinnamic acids) is given as “antioxidant, antimicrobial, and anti-inflammatory effects [19]”.
For `C=C[C@@]1(C)CC[C@H]2C(=CC[C@@H]3[C@]2(C)CCC[C@@]3(C)C(=O)O)C1` [Isopimaric acid], the “Effects contributing to wound healing” value ([1]; Diterpene resin acids (302 Da)) is given as “re-epithelialization boosting [9], antimicrobial [24, 25, 26, 27], anti-inflammatory [28, 29, 30], and antioxidant effects [31]”.
In the case of `CC(C)C1=CC[C@H]2C(=C1)CC[C@@H]1[C@]2(C)CCC[C@@]1(C)C(=O)O` [Levopimaric acid], the “Effects contributing to wound healing” value ([1]; Diterpene resin acids (302 Da)) is given as “re-epithelialization boosting [9], antimicrobial [24, 25, 26, 27], anti-inflammatory [28, 29, 30], and antioxidant effects [31]”.
For `CC(C)=C1C=C2CCC3C(C)(C(=O)O)CCCC3(C)C2CC1` (centres unmarked) [Neoabietic acid], the “Effects contributing to wound healing” value ([1]; Diterpene resin acids (302 Da)) is given as “re-epithelialization boosting [9], antimicrobial [24, 25, 26, 27], anti-inflammatory [28, 29, 30], and antioxidant effects [31]”.
In the case of `CC(C)C1=CC2=C(CC1)[C@@]1(C)CCC[C@@](C)(C(=O)O)[C@@H]1CC2` [Palustric acid], the “Effects contributing to wound healing” value ([1]; Diterpene resin acids (302 Da)) is given as “re-epithelialization boosting [9], antimicrobial [24, 25, 26, 27], anti-inflammatory [28, 29, 30], and antioxidant effects [31]”.
In the case of `C=C[C@@]1(C)C=C2CC[C@@H]3[C@](C)(CCC[C@@]3(C)C(=O)O)[C@H]2CC1` [Pimaric acid], the “Effects contributing to wound healing” value ([1]; Diterpene resin acids (302 Da)) is listed as “re-epithelialization boosting [9], antimicrobial [24, 25, 26, 27], anti-inflammatory [28, 29, 30], and antioxidant effects [31]”.
For `C=C[C@]1(C)C=C2CC[C@@H]3[C@](C)(CCC[C@@]3(C)C(=O)O)[C@H]2CC1` [Sandaracopimaric acid], the “Effects contributing to wound healing” value ([1]; Diterpene resin acids (302 Da)) is given as “re-epithelialization boosting [9], antimicrobial [24, 25, 26, 27], anti-inflammatory [28, 29, 30], and antioxidant effects [31]”.
For `CC(C)c1ccc2c(c1)CC[C@H]1[C@](C)(C(=O)O)CCC[C@]21C` [dehydroabietic acid, Dehydroabietic acid], the “total permeated amounts (AUC), comparison of the two ointments” value [2] was “highly comparable”, the “Enhancement Factor” value [2] was 1.1 and the “Mean Flux Based on AUC/cm^2/h (relative mass flux)” value [2, 3] was 24.041 ± 7.099 AUC/cm^2/h. The “Mean Flux Based on AUC/cm^2/h (relative mass flux)” value [2, 4] was 21.848 ± 7.791 AUC/cm^2/h, the “time after which detectable in acceptor samples” value [2] was 8 h and the “Effects contributing to wound healing” value ([1]; Diterpene resin acids (300 Da)) was “re-epithelialization boosting [9], anti-inflammatory [23], and antimicrobial effects [24]”.
In the case of `O=C(O)C=Cc1ccc(O)cc1` [p-Coumaric acid], the “Effects contributing to wound healing” value ([1]; Hydroxycinnamic acids) is given as “antioxidant, antimicrobial, and anti-inflammatory effects [19]”.
For Pinoresinol, the “Effects contributing to wound healing” value ([1]; Lignans) is given as “antifungal [20], antioxidant, anti-inflammatory [21], and re-epithelialization boosting effects [9]”.
